# What was measured:
# Experiment in all cases: SelectScreen ZLYTE
# Format in all cases: biochemical
# [1] = biological target: T1, SRMS (Srm) (Homo sapiens, UniProt Q9H3Y6); details: ATP Km, read-out: Percentage of inhibition
# T1 construct: purchased Life Technologies (SelectScreen Whole Panel service)
# Procedure: (§1) We further evaluated the selectivity profile of compound 55 on a larger panel of kinases (SelectScreen Whole Panel, Life Technologies). The inhibition profile of 55, evaluated at 1 μM, is depicted on a dendrogram on Figure 3 where kinases inhibited by a minimum of 80% are shown. A full list of the kinases tested is shown on Table S1 in supplementary information.
# [2] = biological target: T2, PDGFRA V561D (Homo sapiens, UniProt P16234, V561D); details: ATP Km, read-out: Percentage of inhibition
# T2 construct: purchased Life Technologies (SelectScreen service)
# Procedure: as §1
# [3] = biological target: STK24 (MST3) (Homo sapiens, UniProt Q9Y6E0); details: ATP Km, read-out: Percentage of inhibition
# Procedure: as §1
# [4] = biological target: T3, GRK6 (Homo sapiens, UniProt P43250); details: ATP Km, read-out: Percentage of inhibition
# T3 construct: purchased Life Technologies
# Procedure: as §1
# [5] = biological target: PRKCQ (PKC theta) (Homo sapiens, UniProt Q04759); details: ATP Km, read-out: Percentage of inhibition
# Procedure: as §1
# [6] = biological target: T4, KIT V560G (Homo sapiens, UniProt P10721, V560G); details: ATP Km, read-out: Percentage of inhibition
# T4 construct: purchased Life Technologies
# Procedure: as §1
# [7] = biological target: AMPK A2/B1/G1 (Homo sapiens, UniProt P54646); details: ATP Km, read-out: Percentage of inhibition
# Procedure: as §1
# [8] = biological target: T5, KIT V559D (Homo sapiens, UniProt P10721, V559D); details: ATP Km, read-out: Percentage of inhibition
# T5 construct: purchased Life Technologies
# Procedure: as §1
# [9] = biological target: SGK2 (Homo sapiens, UniProt Q9HBY8); details: ATP Km, read-out: Percentage of inhibition
# Procedure: as §1
# [10] = biological target: T6, KIT T670I (Homo sapiens, UniProt P10721, T670I); details: ATP Km, read-out: Percentage of inhibition
# T6 construct: purchased Life Technologies
# Procedure: as §1
# [11] = biological target: AKT2 (PKB beta) (Homo sapiens, UniProt P31751); details: ATP Km, read-out: Percentage of inhibition
# Procedure: as §1
# [12] = biological target: T7, HIPK4 (Homo sapiens, UniProt Q8NE63); details: ATP Km, read-out: Percentage of inhibition
# T7 construct: purchased Life Technologies (SelectScreen service)
# Procedure: as §1
# [13] = biological target: T8, PAK6 (Homo sapiens, UniProt Q9NQU5); details: ATP Km, read-out: Percentage of inhibition
# T8 construct: purchased Life Technologies
# Procedure: as §1
# [14] = biological target: T9, PHKG2 (Homo sapiens, UniProt P15735); details: ATP Km, read-out: Percentage of inhibition
# T9 construct: purchased Life Technologies (SelectScreen)
# Procedure: as §1
# [15] = biological target: T10, AKT3 (PKB gamma) (Homo sapiens, UniProt Q9Y243); details: ATP Km, read-out: Percentage of inhibition
# T10 construct: purchased Life Technologies
# Procedure: as §1
# [16] = biological target: T11, RPS6KA2 (RSK3) (Homo sapiens, UniProt Q15349); details: ATP Km, read-out: Percentage of inhibition
# T11 construct: purchased Life Technologies (SelectScreen service)
# Procedure: as §1
# [17] = biological target: T12, PRKD2 (PKD2) (Homo sapiens, UniProt Q9BZL6); details: ATP Km, read-out: Percentage of inhibition
# T12 construct: purchased Life Technologies
# Procedure: as §1
# [18] = biological target: T13, CLK2 (Homo sapiens, UniProt P49760); details: ATP Km, read-out: Percentage of inhibition
# T13 construct: purchased Life Technologies
# Procedure: as §1
# [19] = biological target: T14, NEK9 (Homo sapiens, UniProt Q8TD19); details: ATP Km, read-out: Percentage of inhibition
# T14 construct: purchased Life Technologies
# Procedure: as §1
# [20] = biological target: T15, DNA-PK (Homo sapiens, UniProt P78527); details: ATP Km, read-out: Percentage of inhibition
# T15 construct: purchased Life Technologies (SelectScreen Whole Panel)
# Procedure: as §1
# [21] = biological target: T16, FLT3 (Homo sapiens, UniProt P36888); details: ATP Km, read-out: Percentage of inhibition
# T16 construct: purchased Life Technologies
# Procedure: as §1
# [22] = biological target: T17, PRKCN (PKD3) (Homo sapiens, UniProt O94806); details: ATP Km, read-out: Percentage of inhibition
# T17 construct: purchased Life Technologies
# Procedure: as §1
# [23] = biological target: T18, RET Y791F (Homo sapiens, UniProt P07949, Y791F); details: ATP Km, read-out: Percentage of inhibition
# T18 construct: purchased Life Technologies
# Procedure: as §1
# [24] = biological target: T19, FGR (Homo sapiens, UniProt P09769); details: ATP Km, read-out: Percentage of inhibition
# T19 construct: purchased Life Technologies (SelectScreen service)
# Procedure: as §1
# [25] = biological target: T20, MAP3K8 (COT) (Homo sapiens, UniProt P41279); details: ATP 100 µM, read-out: Percentage of inhibition
# T20 construct: purchased Life Technologies (SelectScreen service)
# Procedure: as §1
# [26] = biological target: T21, CDK5/p25 (Homo sapiens, UniProt Q00535); details: ATP Km, read-out: Percentage of inhibition
# T21 construct: purchased Life Technologies
# Procedure: as §1
# [27] = biological target: PRKX (Homo sapiens, UniProt P51817); details: ATP Km, read-out: Percentage of inhibition
# Procedure: as §1
# [28] = biological target: T22, PAK7 (KIAA1264) (Homo sapiens, UniProt Q9P286); details: ATP Km, read-out: Percentage of inhibition
# T22 construct: purchased Life Technologies (SelectScreen)
# Procedure: as §1
# [29] = biological target: AURKA (Aurora A) (Homo sapiens, UniProt O14965); details: ATP Km, read-out: Percentage of inhibition
# Procedure: as §1
# [30] = biological target: T23, EGFR (ErbB1) L861Q (Homo sapiens, UniProt P00533, L861Q); details: ATP Km, read-out: Percentage of inhibition
# T23 construct: purchased Life Technologies (SelectScreen)
# Procedure: as §1
# [31] = biological target: T24, MARK1 (MARK) (Homo sapiens, UniProt Q9P0L2); details: ATP Km, read-out: Percentage of inhibition
# T24 construct: purchased Life Technologies (SelectScreen)
# Procedure: as §1
# [32] = biological target: T25, TEK (Tie2) (Homo sapiens, UniProt Q02763); details: ATP Km, read-out: Percentage of inhibition
# T25 construct: purchased Life Technologies (SelectScreen Whole Panel service)
# Procedure: as §1
# [33] = biological target: T26, AURKC (Aurora C) (Homo sapiens, UniProt Q9UQB9); details: ATP Km, read-out: Percentage of inhibition
# T26 construct: purchased Life Technologies (SelectScreen Whole Panel service)
# Procedure: as §1
# [34] = biological target: T27, CSNK2A2 (CK2 alpha 2) (Homo sapiens, UniProt P19784); details: ATP Km, read-out: Percentage of inhibition
# T27 construct: purchased Life Technologies (SelectScreen Whole Panel service)
# Procedure: as §1
# [35] = biological target: T28, RET V804E (Homo sapiens, UniProt P07949, V804E); details: ATP Km, read-out: Percentage of inhibition
# T28 construct: purchased Life Technologies (SelectScreen service)
# Procedure: as §1
# [36] = biological target: ERBB4 (HER4) (Homo sapiens, UniProt Q15303); details: ATP Km, read-out: Percentage of inhibition
# Procedure: as §1
# [37] = biological target: T29, RAF1 (cRAF) Y340D Y341D (Homo sapiens, UniProt P04049, Y340D/Y341D); details: ATP 100 µM, read-out: Percentage of inhibition
# T29 construct: purchased Life Technologies
# Procedure: as §1
# [38] = biological target: T30, PRKD1 (PKC mu) (Homo sapiens, UniProt Q15139); details: ATP Km, read-out: Percentage of inhibition
# T30 construct: purchased Life Technologies (SelectScreen Whole Panel service)
# Procedure: as §1
# Sequence of ERBB4 (HER4) (Q15303 26-1308): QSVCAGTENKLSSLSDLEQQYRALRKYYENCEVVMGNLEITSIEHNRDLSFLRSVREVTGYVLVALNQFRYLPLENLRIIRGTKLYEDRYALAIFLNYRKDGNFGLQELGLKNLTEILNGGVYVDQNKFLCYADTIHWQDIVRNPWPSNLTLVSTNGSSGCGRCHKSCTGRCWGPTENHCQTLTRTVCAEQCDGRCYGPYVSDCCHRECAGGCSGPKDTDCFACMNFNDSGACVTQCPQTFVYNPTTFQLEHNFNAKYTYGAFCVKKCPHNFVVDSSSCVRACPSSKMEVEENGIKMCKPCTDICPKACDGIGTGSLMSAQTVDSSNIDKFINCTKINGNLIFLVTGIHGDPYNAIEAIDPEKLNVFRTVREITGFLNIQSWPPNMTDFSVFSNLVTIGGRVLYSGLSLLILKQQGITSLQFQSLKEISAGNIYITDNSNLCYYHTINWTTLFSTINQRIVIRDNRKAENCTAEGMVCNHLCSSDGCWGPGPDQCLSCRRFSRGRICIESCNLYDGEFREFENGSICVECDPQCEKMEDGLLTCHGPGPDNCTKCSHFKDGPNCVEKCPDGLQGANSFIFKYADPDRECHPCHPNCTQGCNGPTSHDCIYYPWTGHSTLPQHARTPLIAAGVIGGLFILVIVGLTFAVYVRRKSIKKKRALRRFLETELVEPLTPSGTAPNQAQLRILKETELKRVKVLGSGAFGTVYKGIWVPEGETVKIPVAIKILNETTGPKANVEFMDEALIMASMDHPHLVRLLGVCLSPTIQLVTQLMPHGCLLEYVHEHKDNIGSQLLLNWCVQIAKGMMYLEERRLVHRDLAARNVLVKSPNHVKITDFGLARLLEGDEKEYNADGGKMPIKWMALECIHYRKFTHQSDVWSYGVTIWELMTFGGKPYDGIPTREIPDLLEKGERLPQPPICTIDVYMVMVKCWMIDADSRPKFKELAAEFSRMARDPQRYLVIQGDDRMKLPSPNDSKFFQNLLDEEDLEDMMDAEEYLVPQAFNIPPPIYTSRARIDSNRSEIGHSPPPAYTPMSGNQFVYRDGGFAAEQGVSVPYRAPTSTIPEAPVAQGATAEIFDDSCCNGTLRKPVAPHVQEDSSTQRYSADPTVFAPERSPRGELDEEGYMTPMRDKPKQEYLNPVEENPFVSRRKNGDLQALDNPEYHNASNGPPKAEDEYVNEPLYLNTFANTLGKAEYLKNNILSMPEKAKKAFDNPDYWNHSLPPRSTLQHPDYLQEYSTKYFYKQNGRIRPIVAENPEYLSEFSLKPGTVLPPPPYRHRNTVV
# T7 sequence (Q8NE63 whole entry): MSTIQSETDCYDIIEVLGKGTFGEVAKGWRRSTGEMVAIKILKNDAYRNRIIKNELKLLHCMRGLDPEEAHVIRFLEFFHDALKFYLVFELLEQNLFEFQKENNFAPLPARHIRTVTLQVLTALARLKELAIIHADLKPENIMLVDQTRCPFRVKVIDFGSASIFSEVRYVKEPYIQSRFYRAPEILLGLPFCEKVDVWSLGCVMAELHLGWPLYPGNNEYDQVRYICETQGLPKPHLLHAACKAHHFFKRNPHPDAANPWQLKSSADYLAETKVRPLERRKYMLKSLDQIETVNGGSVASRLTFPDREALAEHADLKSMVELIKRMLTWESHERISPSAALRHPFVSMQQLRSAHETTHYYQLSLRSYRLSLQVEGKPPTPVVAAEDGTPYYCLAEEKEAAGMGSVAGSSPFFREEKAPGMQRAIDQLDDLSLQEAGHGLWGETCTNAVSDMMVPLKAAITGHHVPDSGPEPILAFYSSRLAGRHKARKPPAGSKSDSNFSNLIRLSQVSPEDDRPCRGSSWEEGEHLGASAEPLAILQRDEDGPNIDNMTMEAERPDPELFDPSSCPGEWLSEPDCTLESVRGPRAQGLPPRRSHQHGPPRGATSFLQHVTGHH
# T27 sequence (P19784 whole entry): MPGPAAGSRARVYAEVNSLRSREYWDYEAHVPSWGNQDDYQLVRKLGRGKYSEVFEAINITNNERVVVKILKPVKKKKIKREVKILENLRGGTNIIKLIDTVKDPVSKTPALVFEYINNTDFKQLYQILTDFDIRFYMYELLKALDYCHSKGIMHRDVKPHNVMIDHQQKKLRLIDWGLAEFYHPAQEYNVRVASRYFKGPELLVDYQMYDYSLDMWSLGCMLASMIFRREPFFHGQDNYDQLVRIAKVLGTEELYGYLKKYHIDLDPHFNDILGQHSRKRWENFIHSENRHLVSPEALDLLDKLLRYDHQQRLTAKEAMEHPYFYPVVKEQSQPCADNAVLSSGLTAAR
# T23 sequence (P00533 25-1210 L861Q): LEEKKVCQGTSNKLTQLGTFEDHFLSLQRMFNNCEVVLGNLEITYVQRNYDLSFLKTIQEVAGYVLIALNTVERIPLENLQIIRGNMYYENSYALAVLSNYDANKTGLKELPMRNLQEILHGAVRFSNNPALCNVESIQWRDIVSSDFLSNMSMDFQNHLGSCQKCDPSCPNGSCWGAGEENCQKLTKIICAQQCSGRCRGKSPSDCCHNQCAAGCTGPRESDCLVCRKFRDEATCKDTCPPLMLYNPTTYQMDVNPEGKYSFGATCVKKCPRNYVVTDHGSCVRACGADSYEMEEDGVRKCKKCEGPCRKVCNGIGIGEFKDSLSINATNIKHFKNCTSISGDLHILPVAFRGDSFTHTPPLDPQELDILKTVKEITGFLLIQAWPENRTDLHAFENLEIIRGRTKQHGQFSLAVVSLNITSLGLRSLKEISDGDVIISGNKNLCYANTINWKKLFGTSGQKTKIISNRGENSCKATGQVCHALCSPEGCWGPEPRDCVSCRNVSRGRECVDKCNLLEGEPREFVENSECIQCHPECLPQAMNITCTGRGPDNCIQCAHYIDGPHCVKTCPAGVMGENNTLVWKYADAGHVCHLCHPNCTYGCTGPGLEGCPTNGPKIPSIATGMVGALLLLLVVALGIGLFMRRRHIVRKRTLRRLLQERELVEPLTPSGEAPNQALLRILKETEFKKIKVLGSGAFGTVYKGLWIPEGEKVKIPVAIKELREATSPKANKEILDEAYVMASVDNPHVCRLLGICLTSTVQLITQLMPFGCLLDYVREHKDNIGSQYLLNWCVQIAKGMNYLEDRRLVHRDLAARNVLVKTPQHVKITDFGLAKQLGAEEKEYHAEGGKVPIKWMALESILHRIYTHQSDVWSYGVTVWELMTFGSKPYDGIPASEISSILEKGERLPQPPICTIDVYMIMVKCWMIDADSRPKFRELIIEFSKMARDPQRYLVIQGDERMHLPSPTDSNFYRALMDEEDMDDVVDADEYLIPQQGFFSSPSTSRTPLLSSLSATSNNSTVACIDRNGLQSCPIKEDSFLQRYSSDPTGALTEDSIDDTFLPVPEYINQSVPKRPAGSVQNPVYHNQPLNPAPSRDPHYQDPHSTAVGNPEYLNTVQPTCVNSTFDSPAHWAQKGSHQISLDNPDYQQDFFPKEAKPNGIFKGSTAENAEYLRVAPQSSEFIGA
# T8 sequence (Q9NQU5 whole entry): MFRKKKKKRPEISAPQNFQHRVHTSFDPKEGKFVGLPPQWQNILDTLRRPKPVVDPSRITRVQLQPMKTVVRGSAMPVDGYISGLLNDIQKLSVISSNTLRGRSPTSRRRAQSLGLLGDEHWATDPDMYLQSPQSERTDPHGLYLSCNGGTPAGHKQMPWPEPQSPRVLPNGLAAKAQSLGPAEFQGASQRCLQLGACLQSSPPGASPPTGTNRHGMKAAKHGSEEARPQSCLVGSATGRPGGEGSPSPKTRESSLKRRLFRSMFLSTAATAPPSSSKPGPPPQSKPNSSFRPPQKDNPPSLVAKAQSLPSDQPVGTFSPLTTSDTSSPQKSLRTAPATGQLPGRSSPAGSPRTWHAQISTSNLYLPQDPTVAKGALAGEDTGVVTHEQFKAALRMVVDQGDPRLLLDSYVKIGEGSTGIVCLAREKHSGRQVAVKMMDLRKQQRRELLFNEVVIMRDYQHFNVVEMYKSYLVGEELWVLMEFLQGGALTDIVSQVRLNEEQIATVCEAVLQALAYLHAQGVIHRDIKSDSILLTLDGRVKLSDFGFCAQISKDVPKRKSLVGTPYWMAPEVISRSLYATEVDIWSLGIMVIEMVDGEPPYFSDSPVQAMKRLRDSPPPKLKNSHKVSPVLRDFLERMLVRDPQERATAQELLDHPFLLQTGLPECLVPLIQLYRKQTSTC
# T12 sequence (Q9BZL6 whole entry): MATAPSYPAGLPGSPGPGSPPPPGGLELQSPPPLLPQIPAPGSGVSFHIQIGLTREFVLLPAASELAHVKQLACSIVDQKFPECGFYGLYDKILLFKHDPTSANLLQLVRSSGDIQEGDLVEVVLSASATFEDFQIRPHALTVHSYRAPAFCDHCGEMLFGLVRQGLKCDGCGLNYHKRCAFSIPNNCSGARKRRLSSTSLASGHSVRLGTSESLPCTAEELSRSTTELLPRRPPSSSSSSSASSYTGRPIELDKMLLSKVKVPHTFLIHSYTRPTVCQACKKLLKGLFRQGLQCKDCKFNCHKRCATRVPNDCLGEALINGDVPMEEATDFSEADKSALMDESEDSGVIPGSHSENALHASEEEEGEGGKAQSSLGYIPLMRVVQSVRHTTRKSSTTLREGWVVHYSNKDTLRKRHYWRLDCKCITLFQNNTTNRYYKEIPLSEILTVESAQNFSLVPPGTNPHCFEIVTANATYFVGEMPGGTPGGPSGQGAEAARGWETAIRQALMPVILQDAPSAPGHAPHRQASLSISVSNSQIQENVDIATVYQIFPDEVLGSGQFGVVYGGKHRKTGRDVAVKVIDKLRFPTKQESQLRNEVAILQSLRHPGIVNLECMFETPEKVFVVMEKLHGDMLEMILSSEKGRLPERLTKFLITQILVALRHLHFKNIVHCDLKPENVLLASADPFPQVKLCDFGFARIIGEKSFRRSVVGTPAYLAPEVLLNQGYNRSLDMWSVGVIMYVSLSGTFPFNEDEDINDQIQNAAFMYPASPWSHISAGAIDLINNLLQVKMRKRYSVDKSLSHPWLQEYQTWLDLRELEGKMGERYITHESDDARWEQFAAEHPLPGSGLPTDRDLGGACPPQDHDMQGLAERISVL
compound,measurement,setting,value
"COc1ccc2[nH]c3c(=O)[nH]c4ccc(O)cc4c3c2c1 [Compound 55, 2-Hydroxy-10-methoxy-5,7-dihydro-6H-indolo[2,3-c]quinolin-6-one]",inhibition at 1 µM,[1],16%
same,inhibition at 1 µM,[2],79%
same,inhibition at 1 µM,[3],63%
same,inhibition at 1 µM,[4],32%
same,inhibition at 1 µM,[5],7%
same,inhibition at 1 µM,[6],27%
same,inhibition at 1 µM,[7],58%
same,inhibition at 1 µM,[8],37%
same,inhibition at 1 µM,[9],19%
same,inhibition at 1 µM,[10],4%
same,inhibition at 1 µM,[11],6%
same,inhibition at 1 µM,[12],24%
same,inhibition at 1 µM,[13],4%
same,inhibition at 1 µM,[14],8%
same,inhibition at 1 µM,[15],3%
same,inhibition at 1 µM,[16],88%
same,inhibition at 1 µM,[17],39%
same,inhibition at 1 µM,[18],97%
same,inhibition at 1 µM,[19],4%
same,inhibition at 1 µM,[20],54%
same,inhibition at 1 µM,[21],93%
same,inhibition at 1 µM,[22],40%
same,inhibition at 1 µM,[23],96%
same,inhibition at 1 µM,[24],81%
same,inhibition at 1 µM,[25],91%
same,inhibition at 1 µM,[26],33%
same,inhibition at 1 µM,[27],7%
same,inhibition at 1 µM,[28],8%
same,inhibition at 1 µM,[29],58%
same,inhibition at 1 µM,[30],9%
same,inhibition at 1 µM,[31],9%
same,inhibition at 1 µM,[32],13%
same,inhibition at 1 µM,[33],17%
same,inhibition at 1 µM,[34],17%
same,inhibition at 1 µM,[35],86%
same,inhibition at 1 µM,[36],20%
same,inhibition at 1 µM,[37],94%
same,inhibition at 1 µM,[38],45%
